From paper PMC11523249, “Expanding the antiprotozoal activity and the mechanism of action of n-butyl and iso-butyl ester of quinoxaline-1,4-di-N-oxide derivatives against Giardia lamblia, Trichomonas vaginalis, and Entamoeba histolytica. An in vitro and in silico approach” (Journal of Enzyme Inhibition and Medicinal Chemistry, 2024)
Where two headings read alike, the source gives them in different places.

Experiments:
[1] = system: murine macrophage cell line J774.2; test: Cytotoxic evaluation, MTT colorimetric assay; format: cell-based; conditions: murine macrophages J774.2, read-out: Cytotoxicity (Macrophages J774.2) (CC50)
Procedure: The murine macrophage cell line J774.2 was maintained in culture flasks with RPMI 1640 medium supplemented with 10% FBS, and 100 U/mL antibiotic-antifungal mixture (Gibco). Cells were incubated at 37 °C with 5% CO2 and humidity. Murine macrophage cell line J774.2 is maintained at Laboratorio de Estudios Epidemiológicos, Clínicos, Diseños Experimentales e Investigación, Facultad de Ciencias Químicas, Universidad Autónoma “Benito Juárez” de Oaxaca. Macrophages were washed and viability was assessed by the MTT colorimetric assay. In a 96-well microplate, 1 × 10^5 macrophages were added per well and a dose-response assay was performed. Compounds were evaluated using serial dilutions to determine half-maximal cytotoxic concentration (CC50) values in triplicate considering 0.2% DMSO as negative control.

[2] = system: G. lamblia trophozoites (WB strain); test: Attachment and viability of G. lamblia trophozoites; format: cell-based, Giardia lamblia; conditions: for Concentration at which detachment and cytotoxicity took impact: 24 h of incubation at 37 °C; for Detachment of trophozoites: cultures incubated with compound
Procedure: Cytotoxicity of a drug is not the only important characteristic to cope with the pathogenesis of G. lamblia. It is known that the attachment of the trophozoites to the microvillus border of the small intestine is a crucial step for causing disease. […] T-143 and T-146 had the highest cytotoxic effect on giardia trophozoites (Figure 2(A,B), respectively). Detachment of trophozoites in cultures incubated with T-146 or T-161 was undetectable, with their impact directly through cytotoxicity (Figure 2(B)).

G. lamblia WB strain = test: In vitro susceptibility assay, G. lamblia trophozoites; format: cell-based, Giardia lamblia; conditions: for Selectivity index, G. lamblia versus macrophages: CC50 J774.2 / IC50 G. lamblia
Procedure: (§1) G. lamblia WB strain, T. vaginalis GT3 strain, and E. histolytica strain HM1-IMSS were used in all experiments, all parasitic strains were obtained from the Unidad de Investigación Médica en Enfermedades Infecciosas y Parasitarias, Hospital de Pediatría, Instituto Mexicano del Seguro Social. In vitro susceptibility assays to determine IC50 values were performed using a method previously described. For this, 4 × 10^4 G. lamblia; 6 × 10^3 E. histolytica, or 4 × 10^4 T. vaginalis trophozoites were incubated for 48 h at 37 °C with different concentrations of quinoxaline derivatives T-137 to T-170 (0.5 ng/mL to 10 μg/mL) using dimethyl sulfoxide (DMSO) (0.05%) as solvent. Metronidazole and albendazole were used as positive controls, and parasites in the medium without drugs containing DMSO (0.05%) were included as negative controls. At the end of the incubation period, trophozoites were washed and subcultured for another 48 h in a fresh medium without drugs. Then, trophozoites were counted with a haemocytometer and the IC50 was calculated by Probit analysis. Experiments were carried out in triplicate and repeated at least twice.

recombinant GlTIM [3] = molecular target: T1, recombinant GlTIM (Giardia intestinalis, UniProt P36186); test: Inhibition of recombinant GlTIM enzyme activity; format: biochemical, Giardia lamblia
T1 construct: His-tag with TEV site (pET3a-HisTEV); made in house; host or cells: Escherichia coli BL21(DE3) pLys
Procedure: Escherichia coli BL21(DE3) pLys bacteria containing the plasmid pET3a-HisTEV with the gene coding for GlTIM wild type were grown in LB medium supplemented with 0.1 mg/mL ampicillin and incubated at 37 °C[40]. When the cultures reached Abs600 = 0.8, they were induced to express the recombinant enzyme using 0.4 mM IPTG and incubated overnight at 30 °C with shaking at 180 rpm. After induction and growth, the bacteria were collected by centrifugation (6500 rpm, 15 min) and suspended in 40 mL of lysis buffer (pH 8.0) containing 50 mM Tris, 50 mM NaCl, 5 mM β-mercaptoethanol, and 1 mM phenylmethylsulfonyl fluoride (PMSF). The bacterial suspension was disrupted by sonication and centrifuged at 9000 rpm for 1 h, at 4 °C. Protein purification was performed via IMAC using a Profinity Ni^2+ charged resin previously equilibrated with lysis buffer. The soluble protein fraction was mixed with the equilibrated Ni^2+ charged resin and incubated at room temperature with shaking for 30 min. Then, the column was washed with the same buffer (10 column volumes) to remove proteins without the His-tag sequence. The desired proteins were eluted with lysis buffer containing 200 mM imidazole and adjusted to pH 8.0. The purified protein was concentrated using Amicon ultrafiltration units. The purity of the enzymes was analysed via sodium dodecyl sulfate-polyacrylamide gel electrophoresis (16% SDS–PAGE gel) and stained with colloidal Coomassie Brilliant Blue. The enzyme concentration was spectrophotometrically determined (Spectrophotometer Cary 50, Varian Inc.) at 280 nm using the extinction coefficient ε280 = 26,600 M^−1 cm^−1.
(§2) For the inhibition assays, freshly purified recombinant GlTIM was incubated at 0.2 mg/mL for 2 h at 37 °C in the presence of 500 μM of each n-butyl and iso-butyl quinoxaline-7-carboxylate-1,4-di-N-oxide derivatives. After incubation, the samples were diluted, and 5 ng/mL were taken to measure their enzymatic activity. Enzyme activity was spectrophotometrically measured (Spectrophotometer Cary 50, Agilent Technologies, CA, USA) by following DHAP synthesis with a coupled system that followed the oxidation of NADH at 340 nm[41]. Results are expressed as the percent activity versus each compound at 500 μM, with the enzyme activity without any drug set as 100%. Additionally, GlTIM and HsTIM (separately) were incubated at 0.2 mg/mL for 2 h at 37 °C in the presence of 5, 10, 50, 150, 250, 350, and 500 μM of the T-167 derivative. Results are expressed as the percent activity versus T-167 concentration. All results represent the arithmetic mean of at least four independent experiments.

T. vaginalis GT3 strain = test: In vitro susceptibility assay, T. vaginalis trophozoites; format: cell-based, Trichomonas vaginalis
Procedure: as §1

[4] = system: E. histolytica strain HM1-IMSS; test: In vitro susceptibility assay, E. histolytica trophozoites; format: cell-based, Entamoeba histolytica; conditions: for IC50: Entamoeba histolytica, 48 h, read-out: E. histolytica (IC50 nM), trophozoites, 48 h at 37 °C, subcultured 48 h, Probit analysis
Procedure: as §1

[5] = molecular target: T2, recombinant E. histolytica thioredoxin reductase (EhTRXR) (Entamoeba histolytica, UniProt C4LW95); test: Inhibition of EhTrxR DTNB reductase activity; format: biochemical; conditions: for inhibition at 100 µM: pH 7, read-out: EhTrxR inhibitory effect (disulphide reductase activity)
T2 construct: His-tag (pET28a) (N); made in house; host or cells: E. coli BL21 (DE3)
T2 sequence (C4LW95 1-314): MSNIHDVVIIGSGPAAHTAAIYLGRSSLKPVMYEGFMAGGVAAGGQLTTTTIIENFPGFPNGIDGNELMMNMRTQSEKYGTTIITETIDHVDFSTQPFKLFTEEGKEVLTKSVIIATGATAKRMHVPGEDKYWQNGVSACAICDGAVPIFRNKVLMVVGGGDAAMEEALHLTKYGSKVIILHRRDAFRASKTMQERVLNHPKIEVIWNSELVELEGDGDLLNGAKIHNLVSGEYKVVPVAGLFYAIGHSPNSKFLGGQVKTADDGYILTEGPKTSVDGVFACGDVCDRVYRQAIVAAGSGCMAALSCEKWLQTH
Procedure: Recombinant E. histolytica thioredoxin reductase (EhTRXR) was expressed in E. coli BL21 (DE3) as His-tag (N-terminal) recombinant proteins using pET28a vector, and it was purified using IMAC as previously described. 5,5′-Dithiobis(2-nitrobenzoic acid) (DTNB) reductase activity was measured by monitoring the production of thionitrobenzoate at 405 nm in a reaction mixture comprising 50 mM potassium phosphate, pH 7.0, 2 mM EDTA, 300 µM NADPH, 5 mM DTNB, and 0.1 µM EhTRXR. Activity was calculated using the molar extinction coefficient at 405 nm of 13.6 mM^−1cm^− 1 and considering that 1 mol of NADPH yields 2 mol of thionitrobenzoate. The enzyme assays were performed at 30 °C, in a final volume of 50 μL, and using a Multiskan Ascent one-channel vertical light path filter photometer (Thermo Electron Co.). All results represent the arithmetic mean of at three independent experiments.

human TIM (HsTIM) = molecular target: T3, human TIM (HsTIM) (Homo sapiens, UniProt P60174); test: Inhibition of recombinant HsTIM enzyme activity; format: biochemical
T3 construct: His-tag with TEV site (pET3a-HisTEV); made in house; host or cells: E. coli BL21-CodonPlus (DE3)-RIL
Procedure: Expression of human TIM (HsTIM) was performed by using the E. coli BL21-CodonPlus (DE3)-RIL strain (Stratagene) containing the plasmid pET3a-HisTEV with the gene coding for HsTIM. Expression and purification steps were as above-mentioned for GlTIM. The enzyme concentration was spectrophotometrically determined (Spectrophotometer Cary 50, Varian Inc.) at 280 nm using the extinction coefficient ε280 = 33,460 M^−1 cm^−1.
as §2

recombinant GlTIM [6] = molecular target: T1, recombinant GlTIM; design: method as in PMID 25223993; conditions: cited from earlier work
[7] = Giardia duodenalis, 48 h, read-out: G. lamblia (IC50 nM), trophozoites, 48 h at 37 °C, subcultured 48 h, Probit analysis
[8] = read-out: G. lamblia (IC50 nM), trophozoites, 48 h at 37 °C, subcultured 48 h, Probit analysis
[9] = Trichomonas vaginalis, GT3, 48 h, read-out: T. vaginalis (IC50 nM), trophozoites, 48 h at 37 °C, subcultured 48 h, Probit analysis
[10] = read-out: T. vaginalis (IC50 nM), trophozoites, 48 h at 37 °C, subcultured 48 h, Probit analysis

T1 sequence (P36186 whole entry): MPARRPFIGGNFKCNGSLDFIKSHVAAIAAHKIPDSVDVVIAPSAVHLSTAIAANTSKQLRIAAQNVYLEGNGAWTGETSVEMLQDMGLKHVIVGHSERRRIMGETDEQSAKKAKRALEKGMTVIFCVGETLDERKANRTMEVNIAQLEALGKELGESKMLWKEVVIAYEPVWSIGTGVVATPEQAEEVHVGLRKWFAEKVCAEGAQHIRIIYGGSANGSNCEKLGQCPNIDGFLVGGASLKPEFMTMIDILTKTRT
T3 sequence (P60174 whole entry): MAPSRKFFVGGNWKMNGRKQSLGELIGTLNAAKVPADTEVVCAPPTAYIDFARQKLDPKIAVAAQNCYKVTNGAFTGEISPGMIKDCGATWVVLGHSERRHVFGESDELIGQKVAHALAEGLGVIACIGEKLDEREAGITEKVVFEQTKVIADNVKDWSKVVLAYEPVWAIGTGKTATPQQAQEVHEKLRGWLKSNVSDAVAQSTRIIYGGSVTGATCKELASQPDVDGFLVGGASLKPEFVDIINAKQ

Row | SMILES | CC50 [1] | Concentration at which detachment and cytotoxicity took impact [2] | IC50 (G. lamblia WB strain; [7]) | IC50 (G. lamblia WB strain; [8]) | inhibition at 500 µM (recombinant GlTIM [3]; 500 µM compound, 2 h at 37 °C) | IC50 (T. vaginalis GT3 strain; [9]) | IC50 (T. vaginalis GT3 strain; [10]) | IC50 [4] | inhibition at 100 µM [5] | other results
1 | CCCCOC(=O)c1ccc2c(c1)[n+]([O-])c(C(=O)Nc1ccc(Cl)cc1)c(C)[n+]2[O-] [Compound T-143] | 50300 ± 2800 nM | 25 µM | < 30 nM | 29.1 ± 5.83 nM | 43.7% | < 90 nM | 45.2 ± 6.99 nM | 15.1 ± 2.33 nM | 50 to 75% | Selectivity index, G. lamblia versus macrophages (G. lamblia WB strain): 1726 fold; Selectivity index, T. vaginalis versus macrophages (T. vaginalis GT3 strain; CC50 J774.2 / IC50 T. vaginalis): 1112 fold; Selectivity index, E. histolytica versus macrophages ([4]; CC50 J774.2 / IC50 E. histolytica): 3321 fold
2 | CCCCOC(=O)c1ccc2c(c1)[n+]([O-])c(C(=O)OCC)c(C(F)(F)F)[n+]2[O-] [Compound T-146] | > 200000 nM | 25 µM | < 30 nM | 26.1 ± 6.22 nM | 37.3% | ~100 nM | 102 ± 2.49 nM | 64.7 ± 3.73 nM | 50 to 75% | Detachment of trophozoites [2]: undetectable
3 | Cc1ccc(NC(=O)c2c(C)[n+]([O-])c3ccc(C(=O)OCC(C)C)cc3[n+]2[O-])c(C)c1 [Compound T-159] | > 200000 nM |  | 94.5 ± 3.54 nM |  |  | 105 ± 1.18 nM |  | 30.7 ± 5.91 nM |  | EhTrxR inhibitory effect (disulphide reductase activity) ([5]; 100 µM compound, 5 mM DTNB, 300 µM NADPH, 30 °C, pH 7.0): low inhibition
4 | Cc1c(C(=O)Nc2ccc(Cl)cc2)[n+]([O-])c2cc(C(=O)OCC(C)C)ccc2[n+]1[O-] [Compound T-161] |  | 25 µM | 120 ± 1.16 nM |  | 19.7% | 137 ± 3.5 nM |  | 29.1 ± 3.5 nM | > 75% | Detachment of trophozoites [2]: undetectable; IC50 ([5]; DTNB reductase activity, 30 °C, pH 7.0): 18000 nM
5 | CC(=O)c1c(C(F)(F)F)[n+]([O-])c2ccc(C(=O)OCC(C)C)cc2[n+]1[O-] [Compound T-167] | 25400 ± 81.5 nM | 25 µM | < 30 nM | 25.5 ± 1.34 nM | 99.7% | < 90 nM | 90 ± 6.72 nM | 64.5 ± 5.38 nM |  | Effect on HsTIM enzyme activity (human TIM (HsTIM); 10 µM T-167, 2 h at 37 °C): unaffected; HsTIM retained activity (human TIM (HsTIM); 500 µM T-167, when GlTIM activity is completely depleted): more than 75%; HsTIM loss of activity (human TIM (HsTIM); 50 to 350 µM T-167): no more than 10%; Selectivity index, G. lamblia versus macrophages (G. lamblia WB strain): 994 fold; inhibition at 10 µM (recombinant GlTIM [3]; 10 µM T-167, 2 h at 37 °C): > 20%; GlTIM inhibition (recombinant GlTIM [3]; 500 µM compound, 2 h at 37 °C): wholly inhibited; GlTIM residual activity (recombinant GlTIM [3]; 50 to 350 µM T-167): ~25%; Decrease of GlTIM enzyme activity (recombinant GlTIM [3]; <10 to 50 µM T-167): above 70%
6 | CC(C)COC(=O)c1ccc2c(c1)[n+]([O-])c(C(=O)Nc1ccccc1)c(-c1ccccc1)[n+]2[O-] [Compound T-169] | > 200000 nM |  | 98.4 ± 2.19 nM |  |  | 116 ± 5.47 nM |  | 43.7 ± 2.19 nM | 50 to 75% | 
7 | COc1ccc2[nH]c([S+]([O-])Cc3ncc(C)c(OC)c3C)nc2c1 (stereo not shown) [omeprazole] |  |  |  |  |  |  |  |  |  | Concentration attaining 70% inhibition of GlTIM (recombinant GlTIM [6]): about 300 µM; Concentration wholly inhibiting GlTIM activity (recombinant GlTIM [6]): 750 µM
